Results taken from US8589175B2, “Optimization and individualization of medication selection and dosing” (Children's Hospital Medical Center, priority 2005, dated 2013).

Tested on: CYP2C19
Experiment: dosing recommendation per CYP2C19 metabolizer subgroup as percentage of usual population dose (Equations 4-6)
Details: CYP2C19
From the text: Assuming the goal is to maintain the same AUC for all three subpopulations of patients, the following subpopulation dosing relationships hold: DPM=DEM*(AUCEM/AUCPM) OR DPM=DEM*R if R=(AUCEM/AUCPM) (Equation 2) DIM=DEM*(AUCEM/AUCIM) OR DIM=DEM*S if S=(AUCEM/AUCIM) (Equation 3)
By substituting equations 2 and 3 into equation 1, and then rearranging the equation to solve for the percent dose adjustment needed for each subgroup relative to the population dose: DEM(%)=100/(fEM+fIM*S+fPM*R) (Equation 4) DPM(%)=R*DEM (Equation 5) DIM(%)=S*DEM (Equation 6) Equations 4, 5, and 6 show how the dosing for the more homogeneous subgroups is determined and how the dosing results are expressed as a fraction of the clinician's usual heterogeneous whole group dosages. Determining “Minimal Dose Adjustment Units”
Example: The approach in the previous section leads to individualized initial drug dose recommendations for each of the 3 subgroups (extensive, poor and intermediate metabolizers). Each subgroup represents a specific number of functional alleles for the specific DME (extensive metabolizers have 2 functional, intermediate metabolizers have 1 functional and poor metabolizers have 0 functional). The resultant dosing recommendations are expressed as percentages of the clinician's usual starting dose. It is possible to investigate the effect of increasing numbers of non-functional alleles using these new dosing recommendations. For example, if DRX % is the dosing recommendation for subgroup X expressed as a percentage of the clinician's usual starting dose then the following are true: Effect of […] 1 non-functional allele=(DREM %−DRIM %)/DREM % Effect of 2 non-functional allele=(DREM %−DRPM %)/DREM % Below is a spreadsheet (Table 3) that examines this for CYP2D6, CYP2C19 and CYP2C9. […] 2C9 has 2 MDA units per non-functional allele.

| SMILES | 1 al (effect of 1 non-functional allele) | 2 al (effect of 2 non-functional alleles) |
| --- | --- | --- |
| CNCCC(Oc1ccc(C(F)(F)F)cc1)c1ccccc1 (centres unmarked) [fluoxetine] | 0.20 | 0.35 |

Same assay, conditions: CYP2C19 intermediate metabolizers; percent of usual dose

| SMILES | IM (%) dosing recommendation [%] |
| --- | --- |
| CNCCC(Oc1ccc(C(F)(F)F)cc1)c1ccccc1 (centres unmarked) [fluoxetine] | 86 |

Same assay, conditions: CYP2C19 poor metabolizers; percent of usual dose

| SMILES | PM (%) dosing recommendation [%] |
| --- | --- |
| CNCCC(Oc1ccc(C(F)(F)F)cc1)c1ccccc1 (centres unmarked) [fluoxetine] | 70 |

Same assay, conditions: human

| SMILES | 1 al (effect of 1 non-functional allele) | 2 al (effect of 2 non-functional alleles) | IM (%) dosing recommendation [%] | PM (%) dosing recommendation [%] | UM (%) dosing recommendation [%] | 2 al/1 al |
| --- | --- | --- | --- | --- | --- | --- |
| CNCCCC12CCC(c3ccccc31)c1ccccc12 [maprotiline] | 0.00 | 0.00 | 100 | 100 | 100 |  |
| O=C(NCCN1CCOCC1)c1ccc(Cl)cc1 [moclobemide] | 0.25 | 0.51 | 82 | 54 | 110 | 2.00 |
| CN1CCN2c3ccccc3Cc3ccccc3C2C1 (centres unmarked) [mianserin] | 0.00 | 0.00 | 100 | 100 | 100 |  |
| CN(C)CCC=C1c2ccccc2COc2ccccc21 [doxepin] | 0.13 | 0.54 | 91 | 46 |  |  |
| CN1CCN(C2=Nc3cc(Cl)ccc3Nc3ccccc32)CC1 [clozapine] | 0.13 | 0.25 | 91 | 78 | 104 | 2.00 |
| CN(C)CCCC1(c2ccc(F)cc2)OCc2cc(C#N)ccc21 (centres unmarked) [citalopram] | 0.22 | 0.44 | 84 | 61 | 108 | 1.96 |
| CC(CN(C)C)CN1c2ccccc2CCc2ccccc21 (centres unmarked) [trimipramine] | 0.53 | 0.59 | 62 | 45 | 111 | 1.12 |

Tested on: CYP2C9
Experiment: dosing recommendation per CYP2C9 metabolizer subgroup as percentage of usual population dose (Equations 4-6)
Parameters: species or system human
Details: CYP2C9
From the text: Determining “Minimal Dose Adjustment Units”
2C9 has 2 MDA units per non-functional allele.

| SMILES | 1 al (effect of 1 non-functional allele) | 2 al (effect of 2 non-functional alleles) |
| --- | --- | --- |
| CCCNC(=O)NS(=O)(=O)c1ccc(Cl)cc1 [Diabinese] | 0.58 | 0.83 |
| CC(=O)CC(c1ccccc1)c1c(O)c2ccccc2oc1=O (centres unmarked) [Coumadin] | 0.62 | 0.85 |
| Cc1ccc(-c2cc(C(F)(F)F)nn2-c2ccc(S(N)(=O)=O)cc2)cc1 [Celebrex] | 0.30 | 0.65 |
| CC(C)n1c(/C=C/[C@@H](O)C[C@@H](O)CC(=O)O)c(-c2ccc(F)cc2)c2ccccc21 (racemic) [Lescol] | 0.20 | 0.65 |
| CCC1=C(C)CN(C(=O)NCCc2ccc(S(=O)(=O)NC(=O)N[C@H]3CC[C@H](C)CC3)cc2)C1=O [Amaryl] | 0.42 | 0.83 |
| O=C1NC(=O)C(c2ccccc2)(c2ccccc2)N1 [Dilantin] | 0.36 | 0.64 |
| CCCCc1nc(Cl)c(CO)n1Cc1ccc(-c2ccccc2-c2nn[nH]n2)cc1 [Cozaar] | 0.50 | 0.80 |

Same assay, conditions: CYP2C9, head prints UM; percent of usual dose

| SMILES | UM (%) dosing recommendation [%] |
| --- | --- |
| CCCNC(=O)NS(=O)(=O)c1ccc(Cl)cc1 [Diabinese] | 120 |
| CC(=O)CC(c1ccccc1)c1c(O)c2ccccc2oc1=O (centres unmarked) [Coumadin] | 130 |
| Cc1ccc(-c2cc(C(F)(F)F)nn2-c2ccc(S(N)(=O)=O)cc2)cc1 [Celebrex] | 100 |
| CC(C)n1c(/C=C/[C@@H](O)C[C@@H](O)CC(=O)O)c(-c2ccc(F)cc2)c2ccccc21 (racemic) [Lescol] | 100 |
| CCC1=C(C)CN(C(=O)NCCc2ccc(S(=O)(=O)NC(=O)N[C@H]3CC[C@H](C)CC3)cc2)C1=O [Amaryl] | 120 |
| O=C1NC(=O)C(c2ccccc2)(c2ccccc2)N1 [Dilantin] | 110 |
| CCCCc1nc(Cl)c(CO)n1Cc1ccc(-c2ccccc2-c2nn[nH]n2)cc1 [Cozaar] | 100 |

Same assay, conditions: CYP2C9; ratio of the two effects

| SMILES | 2 al/1 al |
| --- | --- |
| CCCNC(=O)NS(=O)(=O)c1ccc(Cl)cc1 [Diabinese] | 1.43 |
| CC(=O)CC(c1ccccc1)c1c(O)c2ccccc2oc1=O (centres unmarked) [Coumadin] | 1.38 |
| Cc1ccc(-c2cc(C(F)(F)F)nn2-c2ccc(S(N)(=O)=O)cc2)cc1 [Celebrex] | 2.17 |
| CC(C)n1c(/C=C/[C@@H](O)C[C@@H](O)CC(=O)O)c(-c2ccc(F)cc2)c2ccccc21 (racemic) [Lescol] | 3.25 |
| CCC1=C(C)CN(C(=O)NCCc2ccc(S(=O)(=O)NC(=O)N[C@H]3CC[C@H](C)CC3)cc2)C1=O [Amaryl] | 2.00 |
| O=C1NC(=O)C(c2ccccc2)(c2ccccc2)N1 [Dilantin] | 1.75 |
| CCCCc1nc(Cl)c(CO)n1Cc1ccc(-c2ccccc2-c2nn[nH]n2)cc1 [Cozaar] | 1.60 |

Same assay, conditions: CYP2C9 intermediate metabolizers; percent of usual dose

| SMILES | IM (%) dosing recommendation [%] |
| --- | --- |
| CCCNC(=O)NS(=O)(=O)c1ccc(Cl)cc1 [Diabinese] | 60 |
| CC(=O)CC(c1ccccc1)c1c(O)c2ccccc2oc1=O (centres unmarked) [Coumadin] | 50 |
| Cc1ccc(-c2cc(C(F)(F)F)nn2-c2ccc(S(N)(=O)=O)cc2)cc1 [Celebrex] | 70 |
| CC(C)n1c(/C=C/[C@@H](O)C[C@@H](O)CC(=O)O)c(-c2ccc(F)cc2)c2ccccc21 (racemic) [Lescol] | 80 |
| CCC1=C(C)CN(C(=O)NCCc2ccc(S(=O)(=O)NC(=O)N[C@H]3CC[C@H](C)CC3)cc2)C1=O [Amaryl] | 70 |
| O=C1NC(=O)C(c2ccccc2)(c2ccccc2)N1 [Dilantin] | 70 |
| CCCCc1nc(Cl)c(CO)n1Cc1ccc(-c2ccccc2-c2nn[nH]n2)cc1 [Cozaar] | 50 |

Same assay, conditions: CYP2C9 poor metabolizers; percent of usual dose

| SMILES | PM (%) dosing recommendation [%] |
| --- | --- |
| CCCNC(=O)NS(=O)(=O)c1ccc(Cl)cc1 [Diabinese] | 20 |
| CC(=O)CC(c1ccccc1)c1c(O)c2ccccc2oc1=O (centres unmarked) [Coumadin] | 20 |
| Cc1ccc(-c2cc(C(F)(F)F)nn2-c2ccc(S(N)(=O)=O)cc2)cc1 [Celebrex] | 35 |
| CC(C)n1c(/C=C/[C@@H](O)C[C@@H](O)CC(=O)O)c(-c2ccc(F)cc2)c2ccccc21 (racemic) [Lescol] | 35 |
| CCC1=C(C)CN(C(=O)NCCc2ccc(S(=O)(=O)NC(=O)N[C@H]3CC[C@H](C)CC3)cc2)C1=O [Amaryl] | 20 |
| O=C1NC(=O)C(c2ccccc2)(c2ccccc2)N1 [Dilantin] | 40 |
| CCCCc1nc(Cl)c(CO)n1Cc1ccc(-c2ccccc2-c2nn[nH]n2)cc1 [Cozaar] | 20 |

Tested on: CYP2D6
Experiment: not given
Details: human

| SMILES | 1 al (effect of 1 non-functional allele) | 2 al (effect of 2 non-functional alleles) | 2 al/1 al | EM (%) dosing recommendation [%] | IM (%) dosing recommendation [%] | PM (%) dosing recommendation [%] | UM (%) dosing recommendation [%] |
| --- | --- | --- | --- | --- | --- | --- | --- |
| CNCCCC12CCC(c3ccccc31)c1ccccc12 [maprotiline] | 0.35 | 0.72 | 2.02 | 127 | 82 | 36 | 173 |
| O=C(NCCN1CCOCC1)c1ccc(Cl)cc1 [moclobemide] | −0.16 | −0.32 |  | 92 | 107 | 121 | 77 |
| CNCCC(Oc1ccc(C(F)(F)F)cc1)c1ccccc1 (centres unmarked) [fluoxetine] | 0.12 | 0.27 |  |  | 94 | 78 | 120 |
| CN1CCN2c3ccccc3Cc3ccccc3C2C1 (centres unmarked) [mianserin] | 0.21 | 0.35 | 1.67 | 114 | 90 | 74 | 134 |
| CN(C)CCC=C1c2ccccc2COc2ccccc21 [doxepin] | 0.35 | 0.72 |  | 127 | 82 | 36 | 173 |
| CN1CCN(C2=Nc3cc(Cl)ccc3Nc3ccccc32)CC1 [clozapine] | −0.11 | −0.20 |  | 94 | 104 | 113 | 84 |
| CN(C)CCCC1(c2ccc(F)cc2)OCc2cc(C#N)ccc21 (centres unmarked) [citalopram] | 0.01 | 0.03 |  | 101 | 100 | 98 | 102 |
| CC(CN(C)C)CN1c2ccccc2CCc2ccccc21 (centres unmarked) [trimipramine] | 0.31 | 0.72 | 2.35 | 131 | 91 | 37 | 178 |
